Data: publication PMC11241340, “The Discovery of Novel α2a Adrenergic Receptor Agonists Only Coupling to Gαi/O Proteins by Virtual Screening” (International Journal of Molecular Sciences, 2024)
Changes are numbered by the printed parent chain.

Assays:
α2B-AR [1] = molecular target: T1, α2B-AR (Homo sapiens, UniProt P18089); test: GloSensor cAMP assay in HEK293 cells transfected with α2B-AR; type: cell-based; design: Flag; expressed in transfected cells; host or cells: HEK293; settings: for effect of pretreatment on cAMP accumulation induced by DMED (antagonist activity): α2B-AR-HEK293 cells, 10 μM; for effect on cAMP accumulation (agonist activity) in α2B-AR cells: HEK293 α2B-AR, DMED 10^−10–10^−7M, P300–2342 10^−10–10^−5M
T1 sequence (P18089 1-450): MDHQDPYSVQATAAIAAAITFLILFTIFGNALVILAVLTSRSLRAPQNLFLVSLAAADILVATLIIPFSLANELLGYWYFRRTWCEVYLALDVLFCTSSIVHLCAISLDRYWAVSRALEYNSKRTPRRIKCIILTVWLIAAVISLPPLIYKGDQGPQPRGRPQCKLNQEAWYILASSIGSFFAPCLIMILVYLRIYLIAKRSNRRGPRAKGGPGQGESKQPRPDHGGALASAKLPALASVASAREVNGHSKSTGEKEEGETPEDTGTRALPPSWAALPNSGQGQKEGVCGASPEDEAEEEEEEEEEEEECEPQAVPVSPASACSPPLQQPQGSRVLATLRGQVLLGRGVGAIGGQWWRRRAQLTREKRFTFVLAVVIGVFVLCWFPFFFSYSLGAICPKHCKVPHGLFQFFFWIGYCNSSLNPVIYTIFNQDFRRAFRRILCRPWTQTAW

[2] = molecular target: T2, α2A-AR mutant V114A (α2AV114A-AR) (Homo sapiens, UniProt P08913, V129A); test: GloSensor cAMP assay in HEK293 cells transfected with α2AV114A-AR; type: cell-based; settings: forskolin 10 μM
T2 construct: Flag; expressed in transfected cells; host or cells: HEK293
T2 sequence (P08913 1-465 V129A): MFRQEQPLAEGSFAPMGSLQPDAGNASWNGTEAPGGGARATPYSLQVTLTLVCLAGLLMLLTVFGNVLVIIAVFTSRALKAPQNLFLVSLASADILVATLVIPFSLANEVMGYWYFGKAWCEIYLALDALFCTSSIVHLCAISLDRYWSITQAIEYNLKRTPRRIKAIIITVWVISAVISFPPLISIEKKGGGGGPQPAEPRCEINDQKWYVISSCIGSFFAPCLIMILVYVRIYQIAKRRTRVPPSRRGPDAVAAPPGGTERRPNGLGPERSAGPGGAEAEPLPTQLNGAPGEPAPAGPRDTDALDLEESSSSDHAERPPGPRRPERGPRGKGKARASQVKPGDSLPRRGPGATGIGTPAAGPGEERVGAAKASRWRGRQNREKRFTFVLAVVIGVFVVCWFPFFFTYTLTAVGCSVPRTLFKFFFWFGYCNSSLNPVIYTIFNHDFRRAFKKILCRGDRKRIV
Procedure: (§1) According to the GloSensor cAMP biosensor (Promega, Shanghai, China) manufacturer protocols, HEK293 cells were co-transfected with the pGloSensor-22F cAMP plasmid (Promega, E1171) and pCMV6 Entry-Flag-α2A-AR. After 24 h, the cells were seeded in white 96-well plates. The next day, the cell media were replaced by 90 μL of fresh DMEM with 2% v/v GloSensor cAMP reagent (Promega, E1290) and incubated for 60 min at 37 °C. Before drug stimulation, an initial measurement of the baseline signal was detected. […] PTX 500 ng/mL pretreatment for 24 h was used to assay the chemical effects on Gi coupling following α2A-AR activation. Two mutations, V114A and Y394A were introduced into the α2A-AR genes, respectively, using standard QuickChange PCR. […] In each experiment, the cAMP assay used pcDNA3.1 myc/hisB transfected cells as a negative control and cells stimulated with 10 μM of forskolin as a positive control. The signal was read using a Victor 2D Instrument (PerkinElmer) at 675 nm. The production of cAMP% was calculated (the signal value after chemicals addition–baseline signal value)/the baseline signal value *100 as described in our previous study.

[3] = molecular target: T3, α2A-AR mutant Y394A (α2AY394A-AR) (Homo sapiens, UniProt P08913, Y409A); test: GloSensor cAMP assay in HEK293 cells transfected with α2AY394A-AR; type: cell-based; settings: forskolin 10 μM
T3 construct: Flag; expressed in transfected cells; host or cells: HEK293
T3 sequence (P08913 1-465 Y409A): T2 sequence (P08913 1-465 V129A) with A129V, Y409A
Procedure: as §1

C57/B6 mice = settings: 432 nmol/kg, i.p.
Procedure: C57BL/6 mice (20–22 g) were purchased from the SPF biotechnology co., LTD (Beijing, China). All the animals were housed in an alternating 12 h light/12 h dark cycle room, which was maintained in a climate-controlled environment (25 ± 1 °C). Animals had free access to water and food. All the experimental procedures were reviewed and approved by the ethics committee and institutional animal care and use committee of the Beijing Institute of Pharmacology and Toxicology, Beijing, China (IACUC of AMMS–06–2017–001). Animals were assigned to groups randomly before testing. Testing occurred within the same approximate time of day between experiments. The experimenter was blinded to treatment throughout the course of behavioral testing.
The LORR in C57/B6 mice were used to study the effects of screening compounds.

α2A-AR [4] = molecular target: T4, α2A-AR (Homo sapiens, UniProt P08913); test: GloSensor cAMP assay in HEK293 cells transfected with α2A-AR; type: cell-based; design: Flag; expressed in transfected cells; host or cells: HEK293; settings: for decrease in cAMP accumulation after pertussis toxin pretreatment: PTX 500 ng/mL, 24 h; for increase of cAMP accumulation (Gαs coupling) / decrease of cAMP accumulation stimulated by forskolin (Gαi/o coupling): α2A-AR HEK293, P300–2342 10^−10–10^−5M; for increase of cAMP accumulation (Gαs coupling): DMED 10^−8–10^−5M; for decrease of cAMP accumulation stimulated by forskolin (Gαi/o coupling): FSK 10^−5M, DMED 10^−13–10^−9M
T4 sequence (P08913 1-465): T2 sequence (P08913 1-465 V129A) with A129V
Procedure: as §1

α2B-AR [5] = molecular target: T1, α2B-AR; test: Competitive inhibition of [3H] Rauwolscine binding, CHO-K1 membranes
C57BL/6 mice = test: Spontaneous locomotor activity of mice; type: in vivo, mouse; settings: for inhibition of mice locomotor activity compared to solvent: 10 nmol/mice, i.c.v.
Excerpt: Animals had free access to water and food. […] Animals were assigned to groups randomly before testing.

α2A-AR [6] = molecular target: T4, α2A-AR; test: Competitive inhibition of [3H] Rauwolscine binding, CHO-K1 membranes

Q: With `COc1ccccc1N1CCN(CCN2C(=O)c3ccccc3C(C)(C)C2=O)CC1` [ARC239, reference compound] as the compound, how does the “effect of pretreatment on cAMP accumulation induced by DMED (antagonist activity)” value (shortened to “effect of pretreatment”) (α2B-AR [1]) read?
A: Its value is “decreased”.

Q: How did the “cAMP production in α2AV114A-AR compared to α2A-AR wild type” value [2] turn out when `Cc1cccc([C@H](C)c2cnc[nH]2)c1C` [DMED, Dexmedetomidine, reference compound] was run?
A: The value was “increased”.

Q: And the “decrease of cAMP production in α2AV114A-AR cells” value [2]?
A: Its value is “did not decrease”.

Q: What about the “cAMP production in α2AY394A-AR compared to α2A-AR wild type” value [3] of the same compound?
A: Its value is “increased”.

Q: And the “decrease of cAMP production in α2AY394A-AR cells” value [3]?
A: Its value is “did not decrease”.

Q: And the “LORR induced in mice” value (C57/B6 mice)?
A: The value was 50%.

Q: What about the “decrease in cAMP accumulation after pertussis toxin pretreatment” value (α2A-AR [4]) of the same compound?
A: Its value is “abolished”.

Q: And the “increase of cAMP accumulation (Gαs coupling)” value (from here on “increase of cAMP accumulation”) (α2A-AR [4])?
A: Its value is “concentration-dependently increased”.

Q: What about the “decrease of cAMP accumulation stimulated by forskolin (Gαi/o coupling)” value (“decrease of cAMP accumulation stimulated” below) (α2A-AR [4]) of the same compound?
A: The value was “concentration-dependently decreased”.

Q: And the “effect on cAMP accumulation (agonist activity) in α2B-AR cells” value (from here on “effect … in α2B-AR cells”) (α2B-AR [1])?
A: The value was “concentration-dependently increased”.

Q: What about the IC50 (α2B-AR [5]) of the same compound?
A: The IC50 was 0.0146 µM.

Q: Which “inhibition of mice locomotor activity compared to solvent” value (shortened to “inhibition … compared to solvent”) (C57BL/6 mice) does the source give for `CCN(CC)CCNC(=O)c1ccc2c(c1)n(Cc1ccccc1)c(=O)c1ccnn12` [P300–1500] here?
A: The value was 30%–60%.

Q: And the “increase of cAMP accumulation” value (α2A-AR [4])?
A: Its value is “without increasing”.

Q: And the “decrease of cAMP accumulation stimulated” value (α2A-AR [4])?
A: Its value is “decreased”.

Q: What about the “effect … in α2B-AR cells” value (α2B-AR [1]) of the same compound?
A: The value was “no activation”.

Q: What about the “effect of pretreatment” value (α2B-AR [1]) of the same compound?
A: The value was “no effects”.

Q: What about the IC50 (α2A-AR [6]) of the same compound?
A: Its IC50 is 9.66 µM.

Q: And the “maximum binding inhibition of [3H] Rauwolscine, α2A-AR” value (“maximum binding inhibition … α2A-AR” below) (α2A-AR [6])?
A: Its value is 90%.

Q: And the IC50 (α2B-AR [5])?
A: Its IC50 is 19 µM.

Q: What about the “maximum binding inhibition of [3H] Rauwolscine, α2B-AR” value (“maximum binding inhibition … α2B-AR” for short) (α2B-AR [5]) of the same compound?
A: Its value is 85%.

Q: Which “antagonism of the locomotor inhibition by α2-AR antagonist atipamezole” value (C57BL/6 mice; compound 10 nmol/mice i.c.v., atipamezole 0.2 mg/kg i.p.) does the source give for `CCN(CC)CCNC(=O)c1ccc2c(c1)n(Cc1cccc(F)c1)c(=O)c1ccnn12` [P300–2342] here?
A: The value was “could be antagonized”.

Q: What about the “locomotor activity of mice (abstract statement)” value (C57BL/6 mice; p < 0.05, dose not given) of the same compound?
A: The value was “significantly decreased”.

Q: What about the “decrease of cAMP production in α2AV114A-AR cells” value [2] of the same compound?
A: The value was “did not decrease”.

Q: And the “decrease of cAMP production in α2AY394A-AR cells” value [3]?
A: Its value is “did not decrease”.

Q: What about the “effect on cAMP accumulation in presence of α2A-AR selective antagonist BRL44408” value (α2A-AR [4]; BRL44408 1 μM) of the same compound?
A: Its value is “antagonized”.

Q: What about the “decrease in cAMP accumulation after pertussis toxin pretreatment” value (α2A-AR [4]) of the same compound?
A: The value was “abolished”.

Q: And the “increase of cAMP accumulation” value (α2A-AR [4])?
A: The value was “without increasing”.

Q: What about the “decrease of cAMP accumulation stimulated” value (α2A-AR [4]) of the same compound?
A: Its value is “concentration-dependently decreased”.

Q: And the “effect … in α2B-AR cells” value (α2B-AR [1])?
A: Its value is “no effect”.

Q: And the “effect of pretreatment” value (α2B-AR [1])?
A: Its value is “slightly decreased”.

Q: And the “maximum binding inhibition … α2A-AR” value (α2A-AR [6])?
A: The value was 83%.

Q: And the “maximum binding inhibition … α2B-AR” value (α2B-AR [5])?
A: The value was 71%.

Q: How did the “inhibition … compared to solvent” value (C57BL/6 mice) turn out when `O=C(NCCN1CCCCC1)c1ccc2c(c1)n(Cc1cccc(F)c1)c(=O)c1ccnn12` [P300–2344] was run?
A: The value was 30%–60%.

Q: And the “increase of cAMP accumulation” value (α2A-AR [4])?
A: The value was “without increasing”.

Q: And the “decrease of cAMP accumulation stimulated” value (α2A-AR [4])?
A: The value was “decreased”.

Q: What about the “effect … in α2B-AR cells” value (α2B-AR [1]) of the same compound?
A: Its value is “no activation”.

Q: What about the “effect of pretreatment” value (α2B-AR [1]) of the same compound?
A: The value was “no effects”.

Q: What about the IC50 (α2A-AR [6]) of the same compound?
A: The IC50 was 11.3 µM.

Q: And the “maximum binding inhibition … α2A-AR” value (α2A-AR [6])?
A: The value was 91%.

Q: And the IC50 (α2B-AR [5])?
A: Its IC50 is 15.9 µM.

Q: And the “maximum binding inhibition … α2B-AR” value (α2B-AR [5])?
A: Its value is 86%.

Q: How did the “inhibition … compared to solvent” value (C57BL/6 mice) turn out when `CN(C)CCNC(=O)c1ccc2c(c1)n(Cc1cccc(F)c1)c(=O)c1ccnn12` [T226–1970] was run?
A: The value was 30%–60%.

Q: And the “increase of cAMP accumulation” value (α2A-AR [4])?
A: The value was “without increasing”.

Q: And the “decrease of cAMP accumulation stimulated” value (α2A-AR [4])?
A: The value was “decreased”.

Q: And the “effect … in α2B-AR cells” value (α2B-AR [1])?
A: The value was “no activation”.

Q: What about the “effect of pretreatment” value (α2B-AR [1]) of the same compound?
A: Its value is “slightly decreased”.

Q: And the IC50 (α2A-AR [6])?
A: Its IC50 is 19.5 µM.

Q: And the “maximum binding inhibition … α2A-AR” value (α2A-AR [6])?
A: Its value is 85%.

Q: What about the IC50 (α2B-AR [5]) of the same compound?
A: The IC50 was 8.56 µM.

Q: And the “maximum binding inhibition … α2B-AR” value (α2B-AR [5])?
A: Its value is 94%.
